Results published in publication PMC10535741, “Styrylpyridinium Derivatives for Fluorescent Cell Imaging” (Pharmaceuticals, 2023).

System: BMDMs
Assay: Nitric oxide production of pre-stained macrophages polarised to M1 phenotype (Griess test)
Assay type: cell-based, mouse
Conditions: after 2 days activation with IFNγ and PAM3SCK4; 5-50 μM 6e
Description: The impact of SP compound 6e on the BMDMs’ functional characteristics was also assessed by performing cell differentiation into the M1 phenotype in the presence of compound 6e. The BMDMs were treated with 5–50 μM compound 6e and the cell medium was replaced with a macrophage differentiation medium containing recombinant mouse interferon-gamma (IFNγ) and the TLR2/1 ligand PAM3SCK4 to ensure M1 polarisation. Activated cells express proinflammatory molecules (cytokines and chemokines), as well as nitric oxide (NO) as the main features of their proinflammatory M1-like macrophage phenotype. To verify the NO level in cell culture media, nitrites, as nitric oxide oxidation products, were measured by the standard Griess test. […]
For polarisation of macrophages to the pro-inflammatory M1 phenotype, the BMDM cells stained in a 12-well plate were used. […] After two days of activation, the nitric oxide levels (as a main signal of M1 polarisation) were measured in cell supernatants of activated (M1) and non-activated (M0) cells. The amount of nitric oxide was determined via a nitric oxide assay kit (Cat. No. EMSNO; Invitrogen). Briefly, 50 µL of cell culture media was collected from each well, clarified by centrifugation, and used for NO quantification. The nitrite standards provided by the kit were used for standard curve generation and NO quantification. […]

CCCCCCCCCCCCCCCC[n+]1ccc(C=CC=Cc2cc3c4c(c2)CCCN4CCC3)cc1.[Br-] [Compound 6e, 1-hexadecyl-4-(4-(2,3,6,7-tetrahydro-1H,5H-pyrido[3,2,1-ij]quinolin-9-yl)buta-1,3-dien-1-yl)pyridin-1-ium bromide]
NO production of stained BMDMs: up to 21.5 µM
